{
  "source": "ChEMBL document CHEMBL3351271",
  "about": "“Design, synthesis and biological evaluation of novel potent MDM2/p53 small-molecule inhibitors” (Bioorg Med Chem Lett, 2015)",
  "key": {"[1]": {"assay": "Cytotoxicity against p53 expressing human HCT116 cells after 48 hrs by MTT assay", "format": "functional, cell-based", "settings": "HCT-116, 48 h; call rule not given here"}, "[2]": {"test_system": "SiHa", "assay": "Cytotoxicity against human SiHa cells after 48 hrs by MTT assay", "format": "functional, cell-based"}, "[3]": {"assay": "Cytotoxicity against p53 deficient human HCT116 cells after 48 hrs by MTT assay", "format": "functional, cell-based", "settings": "HCT-116, 48 h"}, "[4]": {"test_system": "HEK293", "assay": "Cytotoxicity against HEK293 cells after 48 hrs by MTT assay", "format": "cell-based", "settings": "Homo sapiens, HEK293, 48 h"}, "[5]": {"test_system": "MCF7", "assay": "Cytotoxicity against human MCF7 cells after 48 hrs by MTT assay", "format": "functional, cell-based", "settings": "MCF7, 48 h"}, "[6]": {"test_system": "HepG2", "assay": "Cytotoxicity against human HepG2 cells after 48 hrs by MTT assay", "format": "functional, cell-based", "settings": "HepG2, 48 h"}, "[7]": {"test_system": "MCF7", "assay": "Cytotoxicity against human MCF7 cells after 120 hrs by MTT assay", "format": "functional", "settings": "MCF7, 120 h"}, "[8]": {"target": "Tumour suppressor p53/oncoprotein Mdm2 (Homo sapiens, UniProt Q00987)", "sequence (P04637 whole entry)": "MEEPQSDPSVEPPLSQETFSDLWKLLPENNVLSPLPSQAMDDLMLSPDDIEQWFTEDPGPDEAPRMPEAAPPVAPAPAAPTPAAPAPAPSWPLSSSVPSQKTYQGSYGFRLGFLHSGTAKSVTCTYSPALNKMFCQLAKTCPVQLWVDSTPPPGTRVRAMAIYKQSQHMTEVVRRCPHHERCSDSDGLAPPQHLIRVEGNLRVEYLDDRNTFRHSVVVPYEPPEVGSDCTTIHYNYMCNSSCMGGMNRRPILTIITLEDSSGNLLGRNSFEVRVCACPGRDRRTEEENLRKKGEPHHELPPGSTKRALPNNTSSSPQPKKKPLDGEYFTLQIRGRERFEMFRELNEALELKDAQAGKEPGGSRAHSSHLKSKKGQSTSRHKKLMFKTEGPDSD", "sequence (Q00987 whole entry)": "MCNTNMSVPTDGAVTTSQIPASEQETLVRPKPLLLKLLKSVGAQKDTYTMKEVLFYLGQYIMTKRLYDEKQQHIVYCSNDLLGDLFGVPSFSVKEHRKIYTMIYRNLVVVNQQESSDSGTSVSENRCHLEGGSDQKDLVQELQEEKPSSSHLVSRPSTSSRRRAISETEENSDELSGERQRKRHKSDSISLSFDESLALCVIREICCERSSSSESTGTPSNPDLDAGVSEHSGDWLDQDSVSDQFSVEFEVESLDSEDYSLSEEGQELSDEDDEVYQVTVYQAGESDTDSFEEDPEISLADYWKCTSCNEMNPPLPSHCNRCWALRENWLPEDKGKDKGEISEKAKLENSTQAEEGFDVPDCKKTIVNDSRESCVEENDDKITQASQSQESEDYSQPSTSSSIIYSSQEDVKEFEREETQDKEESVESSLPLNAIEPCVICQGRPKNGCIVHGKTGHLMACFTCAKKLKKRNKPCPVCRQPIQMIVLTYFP", "assay": "Inhibition of MDM2/P53 (unknown origin) protein interaction by fluorescent polarization assay"}, "[9]": {"settings": "Homo sapiens, SiHa, 48 h, read-out: IC50"}},
  "data": [
    {"smiles": "CC(C)Oc1ccc(C2CN(C)[C@]3(C(=O)Nc4ccccc43)[C@]23NC(=S)N(c2ccc(F)c(Cl)c2)C3=O)cc1", "note": "(stereo partly specified)", "values": [
      {"measurement": "IC50", "setting": "[1]", "result": 8.55, "unit": "µM"},
      {"measurement": "IC50", "setting": "[2]; siha", "result": "Not Active"},
      {"measurement": "IC50", "setting": "[3]", "result": 7.4, "unit": "µM"},
      {"measurement": "IC50", "setting": "[4]", "result": 13.5, "unit": "µM"},
      {"measurement": "IC50", "setting": "[5]", "result": 20.2, "unit": "µM"},
      {"measurement": "IC50", "setting": "[6]", "result": 49.9, "unit": "µM"}
    ]},
    {"smiles": "CN1CC(c2ccc(Cl)cc2)[C@@]2(NC(=S)N(c3ccc(F)c(Cl)c3)C2=O)[C@@]12C(=O)Nc1ccccc12", "note": "(stereo partly specified)", "values": [
      {"measurement": "IC50", "setting": "[1]", "result": 7.78, "unit": "µM"},
      {"measurement": "IC50", "setting": "[2]; [9]", "result": 7.65, "unit": "µM"},
      {"measurement": "IC50", "setting": "[3]", "result": 7.33, "unit": "µM"},
      {"measurement": "IC50", "setting": "[4]", "result": 5.68, "unit": "µM"},
      {"measurement": "IC50", "setting": "[5]", "result": 4.88, "unit": "µM"},
      {"measurement": "IC50", "setting": "[6]", "result": 9.08, "unit": "µM"}
    ]},
    {"smiles": "CC(C)Oc1ccc(C2CN(C)[C@]3(C(=O)Nc4ccc(Br)cc43)[C@]23NC(=S)N(c2ccc(F)c(Cl)c2)C3=O)cc1", "note": "(stereo partly specified)", "values": [
      {"measurement": "IC50", "setting": "[1]", "result": 38.8, "unit": "µM"},
      {"measurement": "IC50", "setting": "[2]; siha", "result": "Not Active"},
      {"measurement": "IC50", "setting": "[3]", "result": 19.4, "unit": "µM"},
      {"measurement": "IC50", "setting": "[4]", "result": 15.8, "unit": "µM"},
      {"measurement": "IC50", "setting": "[5]", "result": 34.9, "unit": "µM"},
      {"measurement": "IC50", "setting": "[6]", "result": 34.6, "unit": "µM"}
    ]},
    {"smiles": "CCOc1ccc(N2C(=O)[C@@]3(NC2=S)C(c2ccc(Cl)cc2)CN(C)[C@]32C(=O)Nc3ccccc32)cc1", "note": "(stereo partly specified)", "values": [
      {"measurement": "IC50", "setting": "[1]", "result": 8.6, "unit": "µM"},
      {"measurement": "IC50", "setting": "[2]; [9]", "result": 81.7, "unit": "µM"},
      {"measurement": "IC50", "setting": "[3]", "result": 8.57, "unit": "µM"},
      {"measurement": "IC50", "setting": "[4]", "result": 9.1, "unit": "µM"},
      {"measurement": "IC50", "setting": "[5]", "result": 87.7, "unit": "µM"},
      {"measurement": "IC50", "setting": "[6]", "result": 103, "unit": "µM"}
    ]},
    {"smiles": "CCc1ccc(C2CN(C)[C@]3(C(=O)Nc4ccccc43)[C@]23NC(=S)N(c2ccc(F)c(Cl)c2)C3=O)cc1", "note": "(stereo partly specified)", "values": [
      {"measurement": "IC50", "setting": "[1]", "result": 8.6, "unit": "µM"},
      {"measurement": "IC50", "setting": "[2]; [9]", "result": 42.5, "unit": "µM"},
      {"measurement": "IC50", "setting": "[3]", "result": 8.45, "unit": "µM"},
      {"measurement": "IC50", "setting": "[4]", "result": 12.5, "unit": "µM"},
      {"measurement": "IC50", "setting": "[5]", "result": 19, "unit": "µM"},
      {"measurement": "IC50", "setting": "[6]", "result": 33.9, "unit": "µM"}
    ]},
    {"smiles": "CCOc1ccc(N2C(=O)[C@@]3(NC2=S)C(c2ccc(Cl)cc2)CN(C)[C@]32C(=O)Nc3ccc(Br)cc32)cc1", "note": "(stereo partly specified)", "values": [
      {"measurement": "IC50", "setting": "[1]", "result": "≥ 50", "unit": "µM"},
      {"measurement": "IC50", "setting": "[2]; siha", "result": "Not Active"},
      {"measurement": "IC50", "setting": "[3]", "result": 16.3, "unit": "µM"},
      {"measurement": "IC50", "setting": "[4]", "result": 28.6, "unit": "µM"},
      {"measurement": "IC50", "setting": "[5]", "result": 34.9, "unit": "µM"},
      {"measurement": "IC50", "setting": "[6]", "result": 42.1, "unit": "µM"}
    ]},
    {"smiles": "CN1CC(c2ccc(Cl)cc2)[C@@]2(NC(=S)N(c3ccc(F)c(Cl)c3)C2=O)[C@@]12C(=O)Nc1ccc(Br)cc12", "note": "(stereo partly specified)", "values": [
      {"measurement": "IC50", "setting": "[1]", "result": 9.9, "unit": "µM"},
      {"measurement": "IC50", "setting": "[2]; [9]", "result": 12.1, "unit": "µM"},
      {"measurement": "IC50", "setting": "[3]", "result": 8.65, "unit": "µM"},
      {"measurement": "IC50", "setting": "[4]", "result": 10.3, "unit": "µM"},
      {"measurement": "IC50", "setting": "[5]", "result": 6.84, "unit": "µM"},
      {"measurement": "IC50", "setting": "[6]", "result": 11.1, "unit": "µM"}
    ]},
    {"smiles": "CCc1ccc(C2CN(C)[C@]3(C(=O)Nc4ccc(Br)cc43)[C@]23NC(=S)N(c2ccc(F)c(Cl)c2)C3=O)cc1", "note": "(stereo partly specified)", "values": [
      {"measurement": "IC50", "setting": "[1]", "result": 11.6, "unit": "µM"},
      {"measurement": "IC50", "setting": "[2]; [9]", "result": 79.1, "unit": "µM"},
      {"measurement": "IC50", "setting": "[3]", "result": 33.5, "unit": "µM"},
      {"measurement": "IC50", "setting": "[4]", "result": 15.6, "unit": "µM"},
      {"measurement": "IC50", "setting": "[5]", "result": 15.5, "unit": "µM"},
      {"measurement": "IC50", "setting": "[6]", "result": 23, "unit": "µM"}
    ]},
    {"smiles": "CCOc1cc(C(C)(C)C)ccc1C1=N[C@@](C)(c2ccc(Cl)cc2)[C@@](C)(c2ccc(Cl)cc2)N1C(=O)N1CCN(CCS(C)(=O)=O)CC1", "values": [
      {"measurement": "CC50", "setting": "[7]", "result": 0.94, "unit": "µM"}
    ]},
    {"smiles": "CC(C)CC(N/C(C(=O)NCc1ccccc1)=C1\\C(C(=O)NO)=Nc2cc(Cl)ccc21)C(=O)NO", "note": "(stereo unspecified)", "values": [
      {"measurement": "Ki", "setting": "[8]", "result": 0.9, "unit": "µM"}
    ]},
    {"smiles": "COc1ccc(C2=N[C@@H](c3ccc(Cl)cc3)[C@@H](c3ccc(Cl)cc3)N2C(=O)N2CCNC(=O)C2)c(OC(C)C)c1", "note": "[NUTLIN-3]", "values": [
      {"measurement": "IC50", "setting": "[6]", "result": 5.1, "unit": "µM"}
    ]}
  ]
}
